Each block holds one compound with its values, some of them ahead of it.
Key:
Assay type in all cases: cell-based
[1] = test system: Staphylococcus aureus SA1199; test: MIC, standard broth micro-dilution assay, SA 1199
Procedure: (§1) The antibacterial efficacy of the present compounds is illustrated by Table III. The minimal inhibitory concentrations (MICs) were determined using a standard broth micro-dilution assay.

Escherichia coli EC14 = test: MIC, standard broth micro-dilution assay, EC 14
Procedure: as §1

[2] = test system: Staphylococcus haemolyticus 415; test: MIC, standard broth micro-dilution assay, SH 415
Procedure: as §1

[3] = test system: Staphylococcus epidermidis 270; test: MIC, standard broth micro-dilution assay, SE 270
Procedure: as §1

[4] = test system: Sensitive Enterococcus faecium and faecalis; test: MIC, standard broth micro-dilution assay, Sensitive; conditions: geometric mean of 4-6 isolates
Procedure: as §1

[5] = test system: Staphylococcus aureus 489; test: MIC, standard broth micro-dilution assay, SA 489
Procedure: as §1

[6] = test system: Haemophilus influenzae RD; test: MIC, standard broth micro-dilution assay, HFRD
Procedure: as §1

[7] = test system: Enterococcus faecalis 276; test: MIC, standard broth micro-dilution assay, EF 276
Procedure: as §1

[8] = test system: Resistant Enterococcus faecium and faecalis; test: MIC, standard broth micro-dilution assay, Resistant; conditions: geometric mean of 4-6 isolates
Procedure: as §1

[9] = test system: Staphylococcus aureus X400; test: MIC, standard broth micro-dilution assay, SA X400
Procedure: as §1

[10] = test system: Staphylococcus aureus X778; test: MIC, standard broth micro-dilution assay, SA X778
Procedure: as §1

[11] = test system: Staphylococcus aureus 446; test: MIC, standard broth micro-dilution assay, SA 446
Procedure: as §1

[12] = test system: Staphylococcus haemolyticus 105; test: MIC, standard broth micro-dilution assay, SH 105
Procedure: as §1

[13] = test system: Staphylococcus aureus 447; test: MIC, standard broth micro-dilution assay, SA 447
Procedure: as §1

[14] = test system: Enterococcus faecalis 2041; test: MIC, standard broth micro-dilution assay, EF 2041
Procedure: as §1

[15] = test system: Enterococcus faecium 180-1; test: MIC, standard broth micro-dilution assay, EF 180-1
Procedure: as §1

[16] = test system: Staphylococcus aureus 491; test: MIC, standard broth micro-dilution assay, SA 491
Procedure: as §1

[17] = test system: Staphylococcus aureus S13E
Procedure: as §1

Enterococcus faecium 180 = test: MIC, standard broth micro-dilution assay, EF 180
Procedure: as §1

[18] = test system: Staphylococcus aureus SA1199A; test: MIC, standard broth micro-dilution assay, SA 1199A
Procedure: as §1

[19] = test system: Enterococcus gallinarum 245; test: MIC, standard broth micro-dilution assay, EG 245
Procedure: as §1

SMILES: CC1OC(OC2C(Oc3c4cc5cc3Oc3ccc(cc3Cl)[C@@H](O)[C@@H](NC(=O)c3ccc(-c6ccccc6)cc3)C(=O)N[C@@H](CC(N)=O)C(=O)N[C@H]5C(=O)N[C@H]3C(=O)NC(C(=O)N[C@H](C(=O)O)c5cc(O)cc(O)c5-c5cc3ccc5O)[C@H](OC3CC(C)(N)C(O)C(C)O3)c3ccc(c(Cl)c3)O4)OC(CO)C(O)C2O)CC(C)(N)C1O (some centres unmarked) [Example 1, N^1-(p-phenylbenzoyl)desleucylA82846B]
minimal inhibitory concentration (MIC), SA 1199 [1]: 0.125
minimal inhibitory concentration (MIC), EC 14 (Escherichia coli EC14): >64
minimal inhibitory concentration (MIC), SH 415 [2]: 4
minimal inhibitory concentration (MIC), SE 270 [3]: 0.5
minimal inhibitory concentration (MIC), Sensitive [4]: 4
minimal inhibitory concentration (MIC), SA 489 [5]: 0.5
minimal inhibitory concentration (MIC), HFRD [6]: no growth
minimal inhibitory concentration (MIC), EF 276 [7]: 0.125
minimal inhibitory concentration (MIC), Resistant [8]: >128
minimal inhibitory concentration (MIC), SA X400 [9]: 0.5
minimal inhibitory concentration (MIC), SA X778 [10]: 0.125
minimal inhibitory concentration (MIC), SA 446 [11]: 1
minimal inhibitory concentration (MIC), SH 105 [12]: 2
minimal inhibitory concentration (MIC), SA 447 [13]: 0.25
minimal inhibitory concentration (MIC), EF 2041 [14]: 0.125
minimal inhibitory concentration (MIC), EF 180-1 [15]: 0.125
minimal inhibitory concentration (MIC), SA 491 [16]: 0.5
minimal inhibitory concentration (MIC), SA S13E [17]: 0.25
minimal inhibitory concentration (MIC), EF 180 (Enterococcus faecium 180): 64
minimal inhibitory concentration (MIC), SA 1199A [18]: ≦.06
minimal inhibitory concentration (MIC), EG 245 [19]: 2

SMILES: CC1OC(OC2C(Oc3c4cc5cc3Oc3ccc(cc3Cl)[C@@H](O)[C@@H](NC(=O)CCCCCCCc3ccccc3)C(=O)N[C@@H](CC(N)=O)C(=O)N[C@H]5C(=O)N[C@H]3C(=O)NC(C(=O)N[C@H](C(=O)O)c5cc(O)cc(O)c5-c5cc3ccc5O)[C@H](OC3CC(C)(N)C(O)C(C)O3)c3ccc(c(Cl)c3)O4)OC(CO)C(O)C2O)CC(C)(N)C1O (some centres unmarked) [Example 2, N^1-(8-phenyl-n-octanoyl)desleucylA82846B]
minimal inhibitory concentration (MIC), SA 1199 [1]: 0.125
minimal inhibitory concentration (MIC), EC 14 (Escherichia coli EC14): >64
minimal inhibitory concentration (MIC), SH 415 [2]: 8
minimal inhibitory concentration (MIC), SE 270 [3]: 0.125
minimal inhibitory concentration (MIC), Sensitive [4]: 1.5
minimal inhibitory concentration (MIC), SA 489 [5]: ≦.06
minimal inhibitory concentration (MIC), HFRD [6]: no growth
minimal inhibitory concentration (MIC), EF 276 [7]: ≦.06
minimal inhibitory concentration (MIC), Resistant [8]: >128
minimal inhibitory concentration (MIC), SA X400 [9]: ≦.06
minimal inhibitory concentration (MIC), SA X778 [10]: ≦.06
minimal inhibitory concentration (MIC), SA 446 [11]: ≦.06
minimal inhibitory concentration (MIC), SH 105 [12]: 1
minimal inhibitory concentration (MIC), SA 447 [13]: ≦.06
minimal inhibitory concentration (MIC), EF 2041 [14]: ≦.06
minimal inhibitory concentration (MIC), EF 180-1 [15]: ≦.06
minimal inhibitory concentration (MIC), SA 491 [16]: ≦.06
minimal inhibitory concentration (MIC), SA S13E [17]: ≦.06
minimal inhibitory concentration (MIC), EF 180 (Enterococcus faecium 180): 8
minimal inhibitory concentration (MIC), SA 1199A [18]: ≦.06
minimal inhibitory concentration (MIC), EG 245 [19]: 0.25

SMILES: CC1OC(OC2c3ccc(c(Cl)c3)Oc3cc4cc(c3OC3OC(CO)C(O)C(O)C3OC3CC(C)(NCc5ccc(-c6ccccc6)cc5)C(O)C(C)O3)Oc3ccc(cc3Cl)C(O)C(NC(=O)CCCCCCCc3ccccc3)C(=O)NC(CC(N)=O)C(=O)NC4C(=O)NC3C(=O)NC2C(=O)NC(C(=O)O)c2cc(O)cc(O)c2-c2cc3ccc2O)CC(C)(N)C1O (centres unmarked) [Example 3, N^1-(8-phenyl-n-octanoyl)-N^DISACC-(p-phenylbenzyl)desleucylA82846B]
minimal inhibitory concentration (MIC), SA 1199 [1]: 1
minimal inhibitory concentration (MIC), EC 14 (Escherichia coli EC14): >64
minimal inhibitory concentration (MIC), SH 415 [2]: 2
minimal inhibitory concentration (MIC), SE 270 [3]: 1
minimal inhibitory concentration (MIC), Sensitive [4]: 2.6
minimal inhibitory concentration (MIC), SA 489 [5]: 1
minimal inhibitory concentration (MIC), HFRD [6]: >64
minimal inhibitory concentration (MIC), EF 276 [7]: 0.5
minimal inhibitory concentration (MIC), Resistant [8]: 6.7
minimal inhibitory concentration (MIC), SA X400 [9]: 1
minimal inhibitory concentration (MIC), SA X778 [10]: 1
minimal inhibitory concentration (MIC), SA 446 [11]: 1
minimal inhibitory concentration (MIC), SH 105 [12]: 1
minimal inhibitory concentration (MIC), SA 447 [13]: 1
minimal inhibitory concentration (MIC), EF 2041 [14]: 0.5
minimal inhibitory concentration (MIC), EF 180-1 [15]: ≦.06
minimal inhibitory concentration (MIC), SA 491 [16]: 1
minimal inhibitory concentration (MIC), SA S13E [17]: 2
minimal inhibitory concentration (MIC), EF 180 (Enterococcus faecium 180): 1
minimal inhibitory concentration (MIC), SA 1199A [18]: 0.5
minimal inhibitory concentration (MIC), EG 245 [19]: 2

SMILES: CC(C)CCC(=O)N[C@H]1C(=O)N[C@@H](CC(N)=O)C(=O)N[C@H]2C(=O)N[C@H]3C(=O)NC(C(=O)N[C@H](C(=O)O)c4cc(O)cc(O)c4-c4cc3ccc4O)[C@H](OC3CC(C)(N)C(O)C(C)O3)c3ccc(c(Cl)c3)Oc3cc2cc(c3OC2OC(CO)C(O)C(O)C2OC2CC(C)(N)C(O)C(C)O2)Oc2ccc(cc2Cl)[C@H]1O (some centres unmarked) [Example 4, N^1-(4-methyl-n-pentanoyl)desleucylA82846B]
minimal inhibitory concentration (MIC), SA 1199 [1]: 0.5
minimal inhibitory concentration (MIC), EC 14 (Escherichia coli EC14): >64
minimal inhibitory concentration (MIC), SH 415 [2]: 16
minimal inhibitory concentration (MIC), SE 270 [3]: 0.5
minimal inhibitory concentration (MIC), Sensitive [4]: 4
minimal inhibitory concentration (MIC), SA 489 [5]: 0.5
minimal inhibitory concentration (MIC), HFRD [6]: >64
minimal inhibitory concentration (MIC), EF 276 [7]: 0.5
minimal inhibitory concentration (MIC), Resistant [8]: >128
minimal inhibitory concentration (MIC), SA X400 [9]: 0.25
minimal inhibitory concentration (MIC), SA X778 [10]: 0.5
minimal inhibitory concentration (MIC), SA 446 [11]: 1
minimal inhibitory concentration (MIC), SH 105 [12]: 0.25
minimal inhibitory concentration (MIC), SA 447 [13]: 1
minimal inhibitory concentration (MIC), EF 2041 [14]: 1
minimal inhibitory concentration (MIC), EF 180-1 [15]: 0.5
minimal inhibitory concentration (MIC), SA 491 [16]: 0.125
minimal inhibitory concentration (MIC), SA S13E [17]: 0.5
minimal inhibitory concentration (MIC), EF 180 (Enterococcus faecium 180): >64
minimal inhibitory concentration (MIC), SA 1199A [18]: 0.5
minimal inhibitory concentration (MIC), EG 245 [19]: 4

minimal inhibitory concentration (MIC), Sensitive [4]: 0.57
minimal inhibitory concentration (MIC), Resistant [8]: 5.7
SMILES: CC1OC(OC2c3ccc(c(Cl)c3)Oc3cc4cc(c3OC3OC(CO)C(O)C(O)C3OC3CC(C)(NCc5ccc(-c6ccc(Cl)cc6)cc5)C(O)C(C)O3)Oc3ccc(cc3Cl)C(O)C(NC(=O)CCCCCCN)C(=O)NC(CC(N)=O)C(=O)NC4C(=O)NC3C(=O)NC2C(=O)NC(C(=O)O)c2cc(O)cc(O)c2-c2cc3ccc2O)CC(C)(N)C1O (centres unmarked) [Example 10, N^1-(7-amino-n-heptanoyl)-N^DISACC-[p-(p-chlorophenyl)benzyl]desleucylA82846B]

minimal inhibitory concentration (MIC), Sensitive [4]: 6.1
minimal inhibitory concentration (MIC), Resistant [8]: >128
SMILES: CC(C)C[C@@H](NC(=O)OC(C)(C)C)C(=O)N[C@H]1C(=O)N[C@@H](CC(N)=O)C(=O)N[C@H]2C(=O)N[C@H]3C(=O)NC(C(=O)N[C@H](C(=O)O)c4cc(O)cc(O)c4-c4cc3ccc4O)[C@H](OC3CC(C)(N)C(O)C(C)O3)c3ccc(c(Cl)c3)Oc3cc2cc(c3OC2OC(CO)C(O)C(O)C2OC2CC(C)(N)C(O)C(C)O2)Oc2ccc(cc2Cl)[C@H]1O (stereo partly drawn) [Example 14, N^1-(N-BOC-D-leucine) derivative of desleucylA82846B]

SMILES: CC1OC(OC2C(Oc3c4cc5cc3Oc3ccc(cc3Cl)[C@@H](O)[C@@H](NC(=O)[C@@H](CCCCNC(=O)OC(C)(C)C)NC(=O)OC(C)(C)C)C(=O)N[C@@H](CC(N)=O)C(=O)N[C@H]5C(=O)N[C@H]3C(=O)NC(C(=O)N[C@H](C(=O)O)c5cc(O)cc(O)c5-c5cc3ccc5O)[C@H](OC3CC(C)(N)C(O)C(C)O3)c3ccc(c(Cl)c3)O4)OC(CO)C(O)C2O)CC(C)(N)C1O (stereo partly drawn) [Example 16, N^1-(N,N′-DIBOC-D-lysine) derivative of desleucylA82846B]
minimal inhibitory concentration (MIC), Sensitive [4]: 7
minimal inhibitory concentration (MIC), Resistant [8]: >128

SMILES: CNC(C(=O)NC1C(=O)NC(CC(N)=O)C(=O)NC2C(=O)NC3C(=O)NC(C(=O)NC(C(=O)O)c4cc(O)cc(O)c4-c4cc3ccc4O)C(OC3CC(C)(N)C(O)C(C)O3)c3ccc(c(Cl)c3)Oc3cc2cc(c3OC2OC(CO)C(O)C(O)C2OC2CC(C)(N)C(O)C(C)O2)Oc2ccc(cc2Cl)C1O)C(C)C [Example 42, N^1-(N-methyl-D-valine) derivative of desleucylA82846B]
minimal inhibitory concentration (MIC), EC 14 (Escherichia coli EC14): >64
minimal inhibitory concentration (MIC), SH 415 [2]: 1
minimal inhibitory concentration (MIC), SE 270 [3]: 1
minimal inhibitory concentration (MIC), Sensitive [4]: 0.66
minimal inhibitory concentration (MIC), SA 489 [5]: 0.5
minimal inhibitory concentration (MIC), Resistant [8]: 128
minimal inhibitory concentration (MIC), SA X400 [9]: 0.5
minimal inhibitory concentration (MIC), SA X778 [10]: 2
minimal inhibitory concentration (MIC), SA 446 [11]: 0.5
minimal inhibitory concentration (MIC), SH 105 [12]: 0.5
minimal inhibitory concentration (MIC), SA 447 [13]: 0.5
minimal inhibitory concentration (MIC), SA 491 [16]: 1
minimal inhibitory concentration (MIC), SA S13E [17]: 1
minimal inhibitory concentration (MIC), EF 180 (Enterococcus faecium 180): 64
